Experimental data taken from patent publication US20210283099A1, “CDC7 KINASE INHIBITORS AND USES THEREOF” (SLOAN-KETTERING INSTITUTE FOR CANCER RESEARCH, priority 2010, published 2021).

Assays:
Experiment in all cases: Cytotoxicity assay (Alamar blue)
Format in all cases: cell-based
[1] = tested on: RB355; conditions: Human retinoblastoma
Procedure: (§1) FIGS. 16A-16B. Granaticin A and Granaticin B inhibit multiple tumor types: The indicated cell lines and primary patient samples were tested against the compounds listed in standard cytotoxicity assays (12 point dose response using Alamar blue reduction as an indicator of cell viability). Assays were done in triplicate and IC50 determinations were run in 12-point serial dilutions from […] to 5 nM. […] These include ras and EGFR gatekeeper mutation containing cell lines in addition to p53 mutant cell lines and other known chemotherapy resistant cell lines. Specifically, this included multi-drug resistance phenotype (MDR-overexpressing) cell lines from multiple hematologic and solid tumor cell lines. Table 1 highlights a series of primary patient leukemia samples-both acute and chronic and treatment naïve and refractory tested against granaticins A and B and Derivatives 1 and 2 (see Examples).

[2] = tested on: DOGO; conditions: Homo sapiens, Patient sample of CLL with trisomy of chromosome 12 and unmutated Ig heavy chain locus
Procedure: as §1

[3] = tested on: JAKL; conditions: Homo sapiens, Patient sample of CLL with trisomy of chromosome 12 and unmutated Ig heavy chain locus
Procedure: as §1

[4] = tested on: JEKO; conditions: Human Mantle Cell Lymphoma
Procedure: as §1

[5] = tested on: HL60 MX1; conditions: Homo sapiens, MDR variant of HL60 selected with mitoxantrone-clone 1
Procedure: as §1

[6] = tested on: JOBL; conditions: Homo sapiens, Patient sample of relapsed/refractory acute myelogenous leukemia
Procedure: as §1

[7] = tested on: PAPR; conditions: Homo sapiens, Patient sample of relapsed acute myelomonocytic leukemia
Procedure: as §1

[8] = tested on: A549; conditions: Human lung adenocarcinoma, G12S KRAS mutation
Procedure: as §1

[9] = tested on: K562; conditions: Human Chronic Myelogenous leukemia transformed to acute erythroleukemia
Procedure: as §1

[10] = tested on: RADO; conditions: Homo sapiens, Patient sample of primary refractory AML with multiple chromosomal abnormalities (−5, −7)
Procedure: as §1

[11] = tested on: SKOV3; conditions: SK-OV-3, Human adenocarcinoma from the ovary derived from ascites, hypodiploid
Procedure: as §1

[12] = tested on: OVCAR3; conditions: OVCAR-3, human ovarian adenocarcinoma
Procedure: as §1

[13] = tested on: H11-18; conditions: Human lung adenocarcinoma, L858R EGFR mutation
Procedure: as §1

[14] = tested on: BE(2)C; conditions: human neuroblastoma, p53 mutant
Procedure: as §1

[15] = tested on: H2030; conditions: NCI-H2030, human lung adenocarcinoma, wild-type EGFR, G12C KRAS mutation, G262V P53 mutation, PTEN null
Procedure: as §1

[16] = tested on: JUCO; conditions: Homo sapiens, Patient sample of pre-B cell ALL with t(4;11) involving the MLL gene
Procedure: as §1

[17] = tested on: H1650; conditions: NCI-H1650, Human lung adenocarcinoma, DelE746-A750 EGFR mutation, wild-type RAS, PTEN null
Procedure: as §1

[18] = tested on: MCF-10A; conditions: human normal mammary epithelium
Procedure: as §1

[19] = tested on: GLHU; conditions: Homo sapiens, Patient sample of Chronic Myelogenous leukemia
Procedure: as §1

[20] = tested on: ALBU; conditions: Homo sapiens, Patient sample of essential thrombocythemia transformed to refractory acute myelogenous leukemia
Procedure: as §1

[21] = tested on: H23; conditions: NCI-H23, Human lung adenocarcinoma, G12c KRAS mutation, M246I P53 mutation
Procedure: as §1

[22] = tested on: H820; conditions: NCI-H820, human lung adenocarcinoma, Del E746-E749 and T790M EGFR mutations
Procedure: as §1

[23] = tested on: MCF-7; conditions: MCF7, human invasive breast ductal carcinoma, estrogen and progesterone receptor positive
Procedure: as §1

[24] = tested on: MDA-MB -231; conditions: human metastatic breast adenocarcinoma, estrogen, progesterone, and HER2/NEU receptor negative
Procedure: as §1

[25] = tested on: RORI; conditions: Homo sapiens, Patient sample of relapsed/refractory AML with trisomy of chromosome #8
Procedure: as §1

[26] = tested on: H460; conditions: NCI-H460, human large cell lung carcinoma, Q61H KRAS mutation
Procedure: as §1

[27] = tested on: H1975; conditions: NCI-H1975, Human lung adenocarcinoma, T790M/L858R EGFR mutation, R273H p53 mutation, PTEN null, wild-type KRAS
Procedure: as §1

[28] = tested on: HTB15; conditions: Human Glioblastoma (U-118MG)
Procedure: as §1

[29] = tested on: NCEB1; conditions: Human Mantle Cell Lymphoma
Procedure: as §1

[30] = tested on: RH30; conditions: Human rhabdomyosarcoma, P53 mutation
Procedure: as §1

[31] = tested on: H358; conditions: NCI-H358, Human lung adenocarcinoma, G13C KRAS mutation
Procedure: as §1

[32] = tested on: FUUR1; conditions: human renal cell carcinoma with the reciprocal ASPL-TFE3 fusion transcript
Procedure: as §1

[33] = tested on: JOQU; conditions: Homo sapiens, Patient sample of relapsed/refractory AML with trisomy of chromosome #8 and Flt-3 ITD
Procedure: as §1

[34] = tested on: HPLD1; conditions: Immortalized human bronchiolar epithelial cell with SV-40 Large T antigen
Procedure: as §1

| SMILES | IC50 [1] | IC50 [2] | IC50 [3] | IC50 [4] | IC50 [5] | IC50 [6] | IC50 [7] | IC50 [8] | IC50 [9] | IC50 [10] | IC50 [11] | IC50 [12] | IC50 [13] | IC50 [14] | IC50 [15] | IC50 [16] | IC50 [17] | IC50 [18] | IC50 [19] | IC50 [20] | other results |
| --- | --- | --- | --- | --- | --- | --- | --- | --- | --- | --- | --- | --- | --- | --- | --- | --- | --- | --- | --- | --- | --- |
| CC1OC2CC(O)C1(O)c1c(O)c3c(c(O)c12)C(=O)C1=C(C3=O)[C@H](C)O[C@H]2CC(=O)O[C@@H]12 (some centres unmarked) [Granaticin A, granaticin A] | 0.09 µM | 0.15 µM | 0.05 µM | 0.04 µM | 0.17 µM | 0.56 µM | 0.99 µM | 0.28 µM | 0.12 µM | 0.06 µM | 0.12 µM | 0.21 µM | 0.42 µM | 0.07 µM | 0.49 µM | 0.08 µM | 0.29 µM | 0.26 µM | 0.26 µM | 0.43 µM | IC50 [21]: 0.12 µM; IC50 [22]: 0.09 µM; IC50 [23]: 0.17 µM; IC50 [24]: 0.47 µM; IC50 [25]: 1.2 µM; IC50 [26]: 0.39 µM; IC50 [27]: 0.12 µM; IC50 [28]: 0.65 µM; IC50 [29]: 0.33 µM; IC50 [30]: 0.13 µM; IC50 [31]: 0.21 µM; IC50 [32]: 0.48 µM; IC50 [33]: 0.77 µM; IC50 [34]: 0.18 µM |
| CC1OC2CC(O[C@H]3CC[C@H](O)[C@H](C)O3)C1(O)c1c(O)c3c(c(O)c12)C(=O)C1=C(C3=O)[C@H](C)O[C@H]2CC(=O)O[C@@H]12 (some centres unmarked) [Granaticin B, granaticin B] | 0.04 µM | 0.07 µM | 0.01 µM | 0.02 µM | 0.08 µM | 0.19 µM | 0.49 µM | 0.09 µM | 0.08 µM | 0.03 µM | 0.04 µM | 0.11 µM | 0.06 µM | 0.04 µM | 0.22 µM | 0.01 µM | 0.06 µM | 0.24 µM | 0.08 µM | 0.03 µM | IC50 [21]: 0.05 µM; IC50 [22]: 0.05 µM; IC50 [23]: 0.13 µM; IC50 [24]: 0.29 µM; IC50 [25]: 0.1 µM; IC50 [26]: 0.08 µM; IC50 [27]: 0.03 µM; IC50 [28]: 0.46 µM; IC50 [29]: 0.26 µM; IC50 [30]: 0.08 µM; IC50 [31]: 0.05 µM; IC50 [32]: 0.34 µM; IC50 [33]: 0.14 µM; IC50 [34]: 0.04 µM |
